From PubChem BioAssay AID1360 (Sanford-Burnham Center for Chemical Genomics, 2008)
Calls of active or inactive are those of the source.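 The calls were made as follows: active = no phosphorylated c-Jun band on immunoblot of thapsigargin-stressed cells, like the unstressed control; inactive = a phosphorylated c-Jun band visible, like the stressed control.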

System: CSM14.1 cells, phospho-c-Jun Western blot, thapsigargin
Assay: phospho-c-Jun suppression under ER stress – CSM14.1 cells, Western blot, mechanism study for ER stress cell death inhibitors (AID 1360)

Compound | outcome
COc1ccc(C2CC(=O)C3=C(C2)Nc2ccccc2NC3c2cccc(Br)c2)cc1OC (stereo unspecified) | active
COc1ccc(C2CC(=O)C3=C(C2)Nc2ccccc2NC3c2cccc(Oc3ccccc3)c2)cc1OC (stereo unspecified) | active
CC1(C)CC(=O)C2=C(C1)Nc1ccccc1NC2c1ccc(-c2ccccc2)cc1 (stereo unspecified) | active
COc1ccc(C2CC(=O)C3=C(C2)Nc2ccccc2NC3c2cccc(C(F)(F)F)c2)cc1OC (stereo unspecified) | active
CSc1ccc(C2Nc3ccccc3NC3=C2C(=O)CC(c2ccccc2)C3)cc1 (stereo unspecified) | active
CCOc1cccc(C2Nc3ccccc3NC3=C2C(=O)CC(c2ccc(OC)cc2)C3)c1 (stereo unspecified) | active
COc1ccc(C2CC(=O)C3=C(C2)Nc2ccccc2NC3c2cc(C)ccc2C)cc1 (stereo unspecified) | active
CCCOc1ccc(C2Nc3ccccc3NC3=C2C(=O)CC(c2ccc(OC)c(OC)c2)C3)cc1 (stereo unspecified) | active
O=C1CC(c2ccccc2)CC2=C1C(c1c(F)cccc1Cl)Nc1ccccc1N2 (stereo unspecified) | active
COc1ccc(C2CC(=O)C3=C(C2)Nc2ccccc2NC3c2ccccc2C(F)(F)F)cc1OC (stereo unspecified) | active
CCOc1cc(C2Nc3ccccc3NC3=C2C(=O)CC(c2ccc(OC)cc2)C3)cc(Cl)c1O (stereo unspecified) | active
